According to PMC12175894 (Science Advances, 2025):
Residue numbers refer to the chain shown, from its start. Where two headings read alike, the source gives them in different places.

Key:
[1] = target: T1, 5-HT1AR F112^3.28W + M92^2.60F (Homo sapiens, UniProt P08908, F112W/M92F); experiment: GloSensor cAMP assay in HEK293A cells; type: cell-based
T1 sequence (P08908 1-422 M92F/F112W): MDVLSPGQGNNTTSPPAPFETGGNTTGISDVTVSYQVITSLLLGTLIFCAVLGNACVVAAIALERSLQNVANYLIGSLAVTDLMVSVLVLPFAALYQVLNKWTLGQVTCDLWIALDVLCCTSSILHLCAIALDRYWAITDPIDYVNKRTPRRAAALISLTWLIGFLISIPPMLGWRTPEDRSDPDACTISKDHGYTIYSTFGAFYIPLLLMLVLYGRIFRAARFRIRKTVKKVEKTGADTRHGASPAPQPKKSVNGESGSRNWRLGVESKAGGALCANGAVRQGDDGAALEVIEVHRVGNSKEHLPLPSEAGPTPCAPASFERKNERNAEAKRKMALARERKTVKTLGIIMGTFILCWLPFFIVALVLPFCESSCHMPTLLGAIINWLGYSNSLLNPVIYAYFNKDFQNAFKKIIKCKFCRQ

male C56BL/6 mice [2] = experiment: Hargreaves test; type: in vivo, mouse; settings: for response latency, Hargreaves: 10 mg/kg i.p.
5-HT1AR = target: T2, 5-HT1AR (Homo sapiens, UniProt P08908); experiment: Complementation-based β-arrestin 2 recruitment PathHunter assay; settings: for Emax: relative to serotonin
T2 sequence (P08908 1-422): T1 sequence (P08908 1-422 M92F/F112W) with F92M, W112F

male C56BL/6 mice [3] = experiment: CFA-induced inflammatory pain model; type: in vivo, mouse
male C56BL/6 mice [4] = experiment: Accelerating rotarod; type: in vivo, mouse
5-HT1AR Y96^2.64A = target: T3, 5-HT1AR Y96^2.64A (Homo sapiens, UniProt P08908, Y96A); experiment: Radioligand competition, displacement of [3H]WAY100635; type: binding; settings: for decrease of affinity when Y96^2.64 and Q97^2.65 were replaced by alanine: Y96A and Q97A mutants vs WT
T3 sequence (P08908 1-422 Y96A): T1 sequence (P08908 1-422 M92F/F112W) with F92M, Y96A, W112F

5-HT1AR F112^3.28W [5] = target: T4, 5-HT1AR F112^3.28W (Homo sapiens, UniProt P08908, F112W); experiment: GloSensor cAMP assay in HEK293A cells; type: cell-based
T4 sequence (P08908 1-422 F112W): T1 sequence (P08908 1-422 M92F/F112W) with F92M

5-HT1AR F112^3.28W [6] = target: T4, 5-HT1AR F112^3.28W; experiment: GloSensor inhibition of cAMP accumulation in HEK293AΔGs; type: cell-based; settings: for Emax: read-out: Emax [% ± SEM], inhibition of cAMP accumulation
5-HT1AR wildtype = target: T5, 5-HT1AR wildtype (Homo sapiens, UniProt P08908); experiment: GloSensor cAMP assay in HEK293A cells; type: cell-based
T5 construct: host or cells: HEK293T, HEK293A, HEK293AΔGs, HEK293AΔGi/o, HEK293AΔARRB1/B2
T5 sequence (P08908 1-422): T1 sequence (P08908 1-422 M92F/F112W) with F92M, W112F

5-HT2AR = target: T6, 5-HT2AR (Homo sapiens, UniProt P28223); experiment: Radioligand competition, displacement of [3H]ketanserin; type: binding
T6 construct: whole cells for IP-One
T6 sequence (P28223 whole entry): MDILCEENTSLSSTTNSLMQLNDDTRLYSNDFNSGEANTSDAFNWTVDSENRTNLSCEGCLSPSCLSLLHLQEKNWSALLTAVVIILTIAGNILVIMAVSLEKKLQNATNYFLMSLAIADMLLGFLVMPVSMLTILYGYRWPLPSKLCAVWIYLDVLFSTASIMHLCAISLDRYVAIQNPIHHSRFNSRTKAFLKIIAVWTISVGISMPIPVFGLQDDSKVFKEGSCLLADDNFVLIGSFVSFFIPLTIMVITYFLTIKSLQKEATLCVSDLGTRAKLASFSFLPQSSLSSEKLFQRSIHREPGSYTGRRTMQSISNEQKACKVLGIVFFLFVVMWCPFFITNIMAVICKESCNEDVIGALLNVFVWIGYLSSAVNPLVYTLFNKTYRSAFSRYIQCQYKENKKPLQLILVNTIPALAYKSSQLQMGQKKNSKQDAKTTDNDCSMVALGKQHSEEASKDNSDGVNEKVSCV

5-HT6R = target: T7, 5-HT6R (Homo sapiens, UniProt P50406); experiment: Radioligand competition, displacement of [3H]LSD; type: binding
T7 construct: host or cells: HEK293T, transient; membranes
T7 sequence (P50406 whole entry): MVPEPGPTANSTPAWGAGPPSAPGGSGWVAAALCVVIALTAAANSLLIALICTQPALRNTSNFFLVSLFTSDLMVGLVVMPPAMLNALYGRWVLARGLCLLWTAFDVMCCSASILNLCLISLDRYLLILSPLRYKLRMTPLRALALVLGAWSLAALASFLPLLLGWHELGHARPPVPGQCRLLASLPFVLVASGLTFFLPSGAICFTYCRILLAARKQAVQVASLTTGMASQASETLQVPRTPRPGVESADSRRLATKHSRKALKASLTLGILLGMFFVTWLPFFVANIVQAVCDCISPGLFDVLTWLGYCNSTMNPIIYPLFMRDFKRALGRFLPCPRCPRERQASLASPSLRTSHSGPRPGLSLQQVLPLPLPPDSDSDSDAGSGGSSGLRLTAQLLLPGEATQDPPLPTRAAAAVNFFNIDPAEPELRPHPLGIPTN

5-HT1AR + GαoA = target: T8, 5-HT1AR + GαoA (Homo sapiens, UniProt P08908); experiment: GloSensor cAMP in HEK293AΔGi/o co-transfected with GαoA; type: cell-based
T8 construct: host or cells: HEK293AΔGi/o
T8 sequence (P08908 whole entry): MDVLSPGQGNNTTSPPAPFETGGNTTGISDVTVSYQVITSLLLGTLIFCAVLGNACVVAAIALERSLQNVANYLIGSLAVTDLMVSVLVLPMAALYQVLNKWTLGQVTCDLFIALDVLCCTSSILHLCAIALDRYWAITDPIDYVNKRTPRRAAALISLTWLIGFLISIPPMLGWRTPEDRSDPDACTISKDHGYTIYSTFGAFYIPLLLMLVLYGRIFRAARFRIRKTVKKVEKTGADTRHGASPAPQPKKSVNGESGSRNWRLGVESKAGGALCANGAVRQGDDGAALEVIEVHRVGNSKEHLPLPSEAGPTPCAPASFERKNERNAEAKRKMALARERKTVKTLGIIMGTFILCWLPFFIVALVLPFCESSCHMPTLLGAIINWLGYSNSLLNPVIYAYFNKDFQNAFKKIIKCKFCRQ
T8 sequence (P09471 2-354 partner limits assumed): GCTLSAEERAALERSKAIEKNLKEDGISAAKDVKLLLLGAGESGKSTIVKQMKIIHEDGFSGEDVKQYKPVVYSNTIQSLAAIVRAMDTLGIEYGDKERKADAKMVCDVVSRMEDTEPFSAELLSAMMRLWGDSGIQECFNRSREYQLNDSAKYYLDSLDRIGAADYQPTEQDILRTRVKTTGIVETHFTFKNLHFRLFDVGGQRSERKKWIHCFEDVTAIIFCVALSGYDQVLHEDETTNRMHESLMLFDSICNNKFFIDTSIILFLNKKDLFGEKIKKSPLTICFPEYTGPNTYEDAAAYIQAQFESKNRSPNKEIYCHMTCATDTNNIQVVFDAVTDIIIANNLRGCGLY

male C56BL/6 mice [7] = experiment: SNI model of neuropathic pain; type: in vivo, mouse
[8] = HEK293-A; read-out: Emax [%±SEM], inhibition of cAMP accumulation
[9] = read-out: Emax, β-arrestin 2 recruitment, PathHunter, elevated GRK2
[10] = read-out: Emax, β-arrestin 2 recruitment, PathHunter, native GRK2
[11] = HEK293-A, read-out: Emax [%±SEM], inhibition of cAMP accumulation

## Cc1ccc(CNCC2(F)CCN(C(=O)c3ccc(F)c(Cl)c3)CC2)nc1 [befiradol, reference compound]
[1]; [8]
  Emax: 92 ± 7%
Male C56BL/6 mice [2]
  response latency, Hargreaves: antinociceptive
5-HT1AR; PathHunter β-arrestin 2
  increase in efficacy with elevated vs native GRK2: approximately 30%
  increase of potency with elevated vs native GRK2: 4 fold
5-HT1AR; [9]
  Emax: 96 ± 3%
5-HT1AR; [10]
  Emax: 67%
Male C56BL/6 mice [3]; nonsedating dose 1 mg/kg
  mechanical sensitivity, CFA model: reduced the mechanical sensitivity
Male C56BL/6 mice [4]; all doses >1 mg/kg
  sedative effects, accelerating rotarod: significantly reduced the ability of the mouse to continue on the rotarod
5-HT1AR Y96^2.64A
  decrease of affinity when Y96^2.64 and Q97^2.65 were replaced by alanine: 4.2- to 13.3 fold
5-HT1AR F112^3.28W [5]; [8]
  Emax: 96 ± 4%
5-HT1AR F112^3.28W [5]; HEK293A, GloSensor, F112W
  Esat [%±SEM]: 90 ± 4%
5-HT1AR F112^3.28W [6]
  Emax: 95 ± 5%
5-HT1AR wildtype; [8]
  Emax: 93 ± 2%
5-HT1AR wildtype; HEK293A, GloSensor, wildtype
  Esat [%±SEM]: 75 ± 3%
5-HT2AR
  Ki: 15000 nM
5-HT6R
  Ki: > 50000 nM
5-HT1AR + GαoA
  Emax: 107 ± 3%
Male C56BL/6 mice [7]; lower, nonsedating doses (1 mg/kg)
  mechanical allodynia, neuropathic pain model: did not reverse the mechanical allodynia

## COc1ccccc1OCCNCCCOc1ccc2c(c1)NC(=O)CO2 [ST171]
[1]; [11]
  Emax: 77 ± 5%
[1]; HEK293A, GloSensor, F112W + M92F; read-out: EC50 left [nM±SEM], inhibition of cAMP accumulation
  EC50: 1.7 ± 0.4 nM
Male C56BL/6 mice [2]
  response latency, Hargreaves: antinociceptive
Male C56BL/6 mice [2]; 1 and 5 mg/kg
  antinociception, Hargreaves, lower doses: not as antinociceptive as the 10 mg/kg dose
5-HT1AR
  EC50: 5.5 ± 1.4 nM
5-HT1AR; [9]
  Emax: 15%
5-HT1AR; [10]
  Emax: < 5%
Male C56BL/6 mice [3]; 10 mg/kg intraperitoneal
  mechanical thresholds of the injured hind paw, CFA model: significantly increased the mechanical thresholds
Male C56BL/6 mice [4]; 10 mg/kg
  sedative effects, accelerating rotarod: did not differ from control mice injected with vehicle
Male C56BL/6 mice [4]; 15 mg/kg
  sedative effects, accelerating rotarod: presumptive sedative effect
5-HT1AR Y96^2.64A; 5-HT1AR Y96A, HEK 293T membranes, read-out: Ki [nM ± SEM]
  Ki: 63 nM
5-HT1AR Y96^2.64A
  decrease of affinity when Y96^2.64 and Q97^2.65 were replaced by alanine: more than 150 fold
5-HT1AR F112^3.28W [5]; [11]
  Emax: 77 ± 9%
5-HT1AR F112^3.28W [5]; HEK293A, GloSensor, F112W; read-out: EC50 left [nM±SEM], inhibition of cAMP accumulation
  EC50: 1.7 ± 0.5 nM
5-HT1AR F112^3.28W [6]; HEK293AΔGs, F112W, read-out: EC50 [nM ± SEM], inhibition of cAMP accumulation
  EC50: 2.2 ± 0.3 nM
5-HT1AR F112^3.28W [6]
  Emax: 69 ± 8%
5-HT1AR wildtype; [11]
  Emax: 86 ± 5%
5-HT1AR wildtype; HEK293A, GloSensor, wildtype; read-out: EC50 left [nM±SEM], inhibition of cAMP accumulation
  EC50: 3.4 ± 0.8 nM
5-HT2AR; 5-HT2A, read-out: pKi (converted)
  Ki: 260 nM
5-HT2AR; 5-HT2AR, HEK 293T membranes, read-out: Ki [nM ± SEM]
  Ki: 280 ± 30 nM
5-HT6R; 5-HT6, read-out: pKi (converted)
  Ki: 3080 nM
5-HT6R; 5-HT6R, HEK 293T membranes, read-out: Ki [nM ± SEM]
  Ki: 3300 ± 300 nM
5-HT1AR + GαoA
  Emax: 100%
5-HT1AR + GαoA; HEK293AΔGi/o + GαoA, read-out: EC50 [nM ± SEM], inhibition of cAMP accumulation
  EC50: 4.1 ± 1 nM
Male C56BL/6 mice [7]; 10 mg/kg intraperitoneal
  mechanical thresholds of the injured hind paw, SNI model: significantly increased the mechanical thresholds
